Patent US6380243B1, “Aminopyridine-containing thiourea inhibitors of herpes viruses” (American Home Products Corporation, priority 1998, dated 2002)
≈ marks a conversion by molar mass, not a printed value.

Legend:
[1] = tested on: HCMV wild-type; experiment: HCMV yield assay; format: cell-based, human cytomegalovirus; details: Human betaherpesvirus 5, Fibroblast; human foreskin fibroblasts; reduction of virus yield by 50%; read-out: IC50 (ug/ml) HCMV
Description: Yield assay. Monolayer cultures of human foreskin fibroblasts are infected with HCMV wild-type, typically at a multiplicity of infection equal to 0.2, in the presence of inhibitor compound (varying concentrations). At three days post-infection, total virus produced in these cultures (i.e. virus yield) is assessed by harvesting and titering the virus in 12-well plates of cultured human foreskin fibroblasts (done in the absence of inhibitor). Plaques are quantified at 2 weeks post-infection. An inhibitor of HCMV is identified by the reduction in titer of virus yield in the presence, compared to the titer in the absence of compound. In this assay, the relative anti-HCMV activity of an inhibitor is typically determined by calculating the IC50 or IC90 value, that is, the amount of compound required to reduce the virus yield by 50% or 90%, respectively. Table I describes IC50 data for compounds tested against HCMV.

[2] = tested on: HSV-1; experiment: HSV Antiviral (ELISA) Assay; format: cell-based, herpes simplex virus type 1; details: Human alphaherpesvirus 1, Vero cells, HSV-1, about 24 hours post-infection, read-out: IC50 (ug/ml) HSV
Description: Vero cells (ATCC #CCL-81) are plated on 96-well tissue culture plates at 3.5×10^4 cells per 100 μl tissue culture DMEM (Dulbecco's modified Eagle media) supplemented with 2% fetal bovine serum (FBS) in each well. After overnight incubation @37° C. (in 5% CO2) and 30 minutes prior to infection with HSV-1 (multiplicity of infection equal to 0.006), cells are either untreated, or treated with test compound (multiple concentrations) or reference standard drug control. After approximately 24 hours post-infection incubation @37° C. (in 5% CO2), cells are fixed for ELISA assay. The primary antibody is murine anti-HSV glycoprotein D monoclonal primary antibody and the secondary antibody is goat anti-mouse IgG linked to β-galactosidase. Thus the extent of viral replication is determined by assessing β-galactosidase activity by quantifying the generation of the 4-methyl umbelliferone fluorescent cleavage product after addition of the methyl umbelliferyl-β-D-galactoside (Sigma #M1633) substrate on a microfluorimeter (365 nm for excitation and 450 nm for emission). Antiviral activity (IC50) of the test compound is determined by comparing the flourescence obtained in absence of compound to that obtained in the presence of compound.

[3] = tested on: VZV strain Ellen; experiment: VZV Antiviral (ELISA) Assay; format: cell-based, varicella-zoster virus; details: Human alphaherpesvirus 3, 72 h; for IC50: human foreskin fibroblast cells, three days, read-out: IC50 (ug/ml) VZV; for inhibition at 10 µg/mL: read-out: % inhibition 10 ug/ml VZV, 10 ug/ml, human foreskin fibroblast cells, three days
Description: For the generation of stock VZV to be used in the assay, VZV strain Ellen (ATCC #VR-1367) is used to infect human foreskin fibroblast (HFF) cells at low multiplicity (less than 0.1) and incubated overnight at 37° C. in 5% CO2. After the overnight incubation, the mixture of uninfected and VZV-infected HFF infected cells are then harvested and added to each well of 96-well plates (3.5×10^4 cells in 100 1μl DMEM supplemented with 2% FBS) which contain test compound or the reference standard drug control (in 100 μl DMEM supplemented with 2% FBS per well). These cells are incubated for three days at 37° C. in 5% CO2, then fixed for ELISA assay. The primary antibody is murine anti-VZV glycoprotein II monoclonal antibody (Applied Biosystems, Inc. #13-145-100) and the secondary antibody is goat anti-mouse IgG linked to β-galactosidase. Thus the extent of viral replication is determined by assessing β-galactosidase activity by quantifying the generation of the 4-methyl umbelliferone fluorescent cleavage product after addition of the methyl umbelliferyl-β-D-galactoside (Sigma #M1633) substrate on a microfluorimeter (365 nm for excitation 450 nm for emission). Antiviral activity (IC50) of the test compound is determined by comparing the flourescence obtained in absence of compound to that obtained the presence of compound.

| Structure (SMILES) | IC50 [2] [µg/mL] | IC50 [1] [µg/mL] | IC50 [3] [µg/mL] | inhibition at 10 µg/mL [3] [%] |
| --- | --- | --- | --- | --- |
| CC(NC(=S)Nc1ccc(NC(=O)c2ccccc2F)cc1)c1nccs1 (stereo not drawn) [Example 1093, 2-Fluoro-N-{4-[3-(1-thiazol-2-yl-ethyl)-thioureido]-phenyl}-benzamide] | > 10 | > 10 | > 10 |  |
| O=C(Nc1ccc(NC(=S)Nc2ccc(Cl)nc2)cc1)c1csnn1 [Example 471, [1,2,3]Thiadiazole-4-carboxylic acid {4-[3-(6-chloro-pyridin-3-yl)-thioureido]-phenyl}-amide] | > 10 | 0.03 (≈ 0.0767 µM) | > 10 | 27 |
| CC(C)(C)n1ccnc1NC(=S)Nc1ccc(NC(=O)c2ccccc2F)cc1 [Example 593, N-{4-[3-(1-tert-Butyl-1H-imidazol-2-yl)-thioureido]-phenyl}-2-fluoro-benzamide] | 10 (≈ 24.3 µM) | > 0.5 | > 10 |  |
| O=C(Nc1ccc(NC(=S)Nc2ccncn2)cc1)c1ccco1 [Example 480, Furan-2-carboxylic acid [4-(3-pyrimidin-4-yl-thioureido)-phenyl]-amide] | > 10 | 7 (≈ 20.6 µM) | > 10 | 42 |
| O=C(Nc1ccc(NC(=S)Nc2ccncc2)cc1)c1ccco1 [Example 427, Furan-2-carboxylic acid [4-(3-pyridin-4-yl-thioureido)-phenyl]-amide] | > 10 | 0.8 (≈ 2.36 µM) | 1.2 (≈ 3.55 µM) | 21 |

Further lines, with some results ahead:

| IC50 [2] [µg/mL] | Structure (SMILES) | IC50 [1] [µg/mL] | IC50 [3] [µg/mL] | inhibition at 10 µg/mL [3] [%] |
| --- | --- | --- | --- | --- |
| > 10 | COc1ccccc1C(=O)Nc1ccc(NC(=S)NC(C)c2ccsc2)cc1 (stereo not drawn) [Example 1101, 2-Methoxy-N-{4-[3-(1-thiophen-3-yl-ethyl)-thioureido]-phenyl}-benzamide] | > 10 | 1 (≈ 2.43 µM) |  |
| > 10 | CC(NC(=S)Nc1ccc(NC(=O)c2ccccc2F)cc1)c1ccnc2ccccc12 (stereo not drawn) [Example 1096, 2-Fluoro-N-{4-[3-(1-quinolin-4-yl-ethyl)-thioureido]-phenyl}-benzamide] | 5.7 (≈ 12.8 µM) | 6.7 (≈ 15.1 µM) |  |
| > 10 | Cc1ccc(S(=O)(=O)n2c(C(C)NC(=S)Nc3ccc(NC(=O)c4ccccc4F)cc3)cc3ccccc32)cc1 (stereo not drawn) [Example 1094, 2-Fluoro-N-[4-(3-{1-[1-(toluene-4-sulfonyl)-1H-indol-2-yl]-ethyl}-thioureido)-phenyl]-benzamide] | > 10 | > 7.5 |  |
| > 10 | CC(NC(=S)Nc1ccc(NC(=O)c2ccccc2F)cc1)c1ccc2ncccc2c1 (stereo not drawn) [Example 1099, 2-Fluoro-N-{4-[3-(1-quinolin-6-yl-ethyl)-thioureido]-phenyl}-benzamide] | 5.6 (≈ 12.6 µM) | > 7.5 |  |
